Measured values from patent US20150099774A1, “Pyrido [3,4-C] [1,9] phenanthroline and 11, 12 dihydropyrido [3,4-C] [1,9] phenanthroline derivatives and the use thereof, particularly for treating cancer” (CHRISTIAN-ALBRECHTS-UNIVERSITAET ZU KIEL, priority 2012, published 2015).

What was measured:
Assay type in all cases: cell-based, human
[1] = system: HL-60(TB); experiment: NCI in vitro anti-tumor screening, 1 μM, SRB; conditions: c = 1 μM; HL-60(TB) (Leukemia); two days
[2] = system: MOLT-4; experiment: NCI in vitro anti-tumor screening, 1 μM, SRB; conditions: c = 1 μM; MOLT-4 (Leukemia); two days
[3] = system: RPMI-8226; experiment: NCI in vitro anti-tumor screening, 1 μM, SRB; conditions: c = 1 μM; RPMI-8226 (Leukemia); two days
[4] = system: K-562; experiment: NCI in vitro anti-tumor screening, 1 μM, SRB; conditions: c = 1 μM; K-562 (Leukemia); two days
[5] = system: LOX IMVI; experiment: NCI in vitro anti-tumor screening, 1 μM, SRB; conditions: c = 1 μM; LOX IMVI (Melanoma); two days
[6] = system: MALME-3M; experiment: NCI in vitro anti-tumor screening, 1 μM, SRB; conditions: c = 1 μM; MALME-3M (Melanoma); two days
[7] = system: M14; experiment: NCI in vitro anti-tumor screening, 1 μM, SRB; conditions: c = 1 μM; M14 (Melanoma); two days
[8] = system: MDA-MB-435; experiment: NCI in vitro anti-tumor screening, 1 μM, SRB; conditions: c = 1 μM; MDA-MB-435 (Melanoma); two days
[9] = system: SK-MEL-2; experiment: NCI in vitro anti-tumor screening, 1 μM, SRB; conditions: c = 1 μM; SK-MEL-2 (Melanoma); two days
[10] = system: SK-MEL-28; experiment: NCI in vitro anti-tumor screening, 1 μM, SRB; conditions: c = 1 μM; SK-MEL-28 (Melanoma); two days
[11] = system: SK-MEL-5; experiment: NCI in vitro anti-tumor screening, 1 μM, SRB; conditions: c = 1 μM; SK-MEL-5 (Melanoma); two days
[12] = system: UACC-257; experiment: NCI in vitro anti-tumor screening, 1 μM, SRB; conditions: c = 1 μM; UACC-257 (Melanoma); two days
[13] = system: UACC-62; experiment: NCI in vitro anti-tumor screening, 1 μM, SRB; conditions: c = 1 μM; UACC-62 (Melanoma); two days
[14] = system: MCF7; experiment: NCI in vitro anti-tumor screening, 1 μM, SRB; conditions: c = 1 μM; MCF7 (Breast cancer); two days
[15] = system: MDA-MB-231/ATCC; experiment: NCI in vitro anti-tumor screening, 1 μM, SRB; conditions: c = 1 μM; MDA-MB-231/ATCC (Breast cancer); two days
[16] = system: BT-549; experiment: NCI in vitro anti-tumor screening, 1 μM, SRB; conditions: c = 1 μM; BT-549 (Breast cancer); two days
[17] = system: T-47D; experiment: NCI in vitro anti-tumor screening, 1 μM, SRB; conditions: c = 1 μM; T-47D (Breast cancer); two days
[18] = system: MDA-MB-468; experiment: NCI in vitro anti-tumor screening, 1 μM, SRB; conditions: c = 1 μM; MDA-MB-468 (Breast cancer); two days
[19] = system: Leukemia cell lines; experiment: NCI in vitro anti-tumor screening, 1 μM, mean of leukemia lines; conditions: c = 1 μM
[20] = system: Melanoma cell lines; experiment: NCI in vitro anti-tumor screening, 1 μM, mean of melanoma lines; conditions: c = 1 μM
[21] = system: Breast cancer cell lines; experiment: NCI in vitro anti-tumor screening, 1 μM, mean of breast cancer lines; conditions: c = 1 μM
[22] = system: 60 tumor cell lines; experiment: NCI in vitro anti-tumor screening, 1 μM, all 60 cell lines; conditions: c = 1 μM; for growth inhibitory effect (in words): leukemia, melanoma, breast cancer lines of Tables I and II
[23] = system: CCRF-CEM; experiment: NCI in vitro anti-tumor screening, 1 μM, SRB; conditions: c = 1 μM; CCRF-CEM (Leukemia); two days
[24] = system: SR; experiment: NCI in vitro anti-tumor screening, 1 μM, SRB; conditions: c = 1 μM; SR (Leukemia); two days
[25] = system: HS-578T; experiment: NCI in vitro anti-tumor screening, 1 μM, SRB; conditions: c = 1 μM; HS-578T (Breast cancer); two days
[26] = system: 60 tumor cell lines; experiment: NCI 5 dose assay, dose-response (GI50, MG_MID); conditions: for GI50: Homo sapiens, calculated from mean graph midpoint; for GI50 / MG_MID (mean-graph midpoint, mean of the logarithms GI50 values): all 60 cell lines; for MG_MID (mean-graph midpoint, mean of the logarithms GI50 values): 5 concentrations
Source text: It has been shown in the experiments carried out according to the present invention that the above-described phenanthroline derivates have antitumoral properties. Due to their structural similarity it is to be assumed that they have also antimicrobial, antifungal, antiviral and anti-inflammatory properties like the benzo[c]phenanthridines. For investigating the pharmacological properties the compounds of general formulas I and II, as well as compounds of the substance class III were investigated in an “in vitro anti-tumor screening” of the National Cancer Institute (NCI), Bethesda, Md., USA. 60 different human pathogenic tumor cell lines were tested, which originate from nine cancer types (leukemia, non-small cell lung carcinoma, colon cancer, CNS cancer, melanoma, ovarian cancer, renal cancer, prostate cancer, breast cancer). For determining the efficacy, the tumor cells are exposed to the compounds for two days and thereafter the growth inhibition is indirectly determined through the determination of the protein biomass with sulforhodamine B (SRB). Untreated cultures serve as reference.
Furthermore, it can be seen from tables I and II that the here tested phenanthrolin derivatives according to the present invention have selectivities for certain tumor types. The most marked growth inhibitory effect is for tumor cells of leukemia. Furthermore, a degree of selectivity for tumor cells of melanoma and mamma carcinoma (breast cancer) can be seen. […] The GI50 (growth inhibition 50%) describes here the concentration of the test substance required for inhibiting cell growth by 50%. […] Develop. Res., 34, (1995) 91-109,]
Exemplary for 6-amino-11-(3-bromophenyl)-11,12-dihydropyrido[3,4-c][1,9] phenanthrol are the dose-response curves shown in FIGS. 1 to 9. The nine different Figures include the various types of cancer. The percentage of growth, depending on the concentration of the compound is plotted (as log10 of the molar concentrations). The individual curves for each type of cancer are different cell lines of this type of cancer, which appear as legends in their usual abbreviations. Horizontal lines in the Figures denote percent growth +100, +50, 0, −50, −100. 100% growth means e.g. no difference to growth after two days without added substance.

Compound	Percentage cell growth [1] [%]	Percentage cell growth [2] [%]	Percentage cell growth [3] [%]	Percentage cell growth [4] [%]	Percentage cell growth [5] [%]	Percentage cell growth [6] [%]	Percentage cell growth [7] [%]	Percentage cell growth [9] [%]	Percentage cell growth [10] [%]	Percentage cell growth [11] [%]	Percentage cell growth [12] [%]	Percentage cell growth [14] [%]	Percentage cell growth [16] [%]	Percentage cell growth [17] [%]	Percentage cell growth [18] [%]	Percentage cell growth, Arithmetic mean [19] [%]	Percentage cell growth, Arithmetic mean [20] [%]	Percentage cell growth, Arithmetic mean [21] [%]	GI50 [26] [µM]	MG_MID (mean-graph midpoint, mean of the logarithms GI50 values) [26]	also measured
Nc1nc2c(c3ccncc13)C(c1ccc(Br)cc1)Cc1ccncc1-2 (centres unmarked)	70.3	75.3	64.7	84.9	95.7	98.2	93.4	94.1	112.5	86.2	107.8	83.4	67.8	84.6	87.6	73.8	97.4	80.8	–	–	Percentage cell growth [8]: 107%; Percentage cell growth [13]: 81.7%; Percentage cell growth [15]: 80.6%; Percentage cell growth, Arithmetic mean of all 60 cell lines [22]: 90.5%
COc1cccc(-c2cc3ccncc3c3nc(N)c4cnccc4c23)c1OC	118.7	90.1	96.8	88.8	89.3	123.8	94.8	117.3	119.5	86.3	126.3	89.9	95.0	97.4	81.5	92.1	95.2	90.9	–	–	Percentage cell growth [23]: 74.9%; Percentage cell growth [24]: 83.5%; Percentage cell growth [13]: 99.1%; Percentage cell growth [15]: 90.8%; Percentage cell growth [25]: 90.5%; Percentage cell growth, Arithmetic mean of all 60 cell lines [22]: 98.0%; growth inhibitory effect (in words) [22]: disadvantageous
COc1cc(-c2cc3ccncc3c3nc(N)c4cnccc4c23)cc(OC)c1OC	−0.9	−8.9	33.5	29.9	−30.4	35.5	9.5	65.3	41.5	2.2	30.9	22.8	8.31	36	−23.6	12.3	22.1	8.2	–	–	Percentage cell growth [23]: 7.2%; Percentage cell growth [24]: 13.1%; Percentage cell growth [25]: −2.5%; Percentage cell growth, Arithmetic mean of all 60 cell lines [22]: 16.8%; growth inhibitory effect (in words) [22]: best results
Nc1nc2c3cnccc3cc(-c3ccco3)c2c2ccncc12	13.9	−0.9	62.7	51.6	2.3	59.7	37.0	91.8	42.4	20.0	69.8	25.0	16.2	48.4	35.6	24.6	45.5	40.0	–	–	Percentage cell growth [23]: 12.4%; Percentage cell growth [24]: 7.8%; Percentage cell growth [13]: 41.0%; Percentage cell growth [15]: 74.9%; Percentage cell growth, Arithmetic mean of all 60 cell lines [22]: 39.1%; growth inhibitory effect (in words) [22]: good cytotoxic effects
COc1cc2c(ccc3c4cc(OC)c(OC)cc4c[n+](C)c23)cc1O [Fagaronine, reference compound]	–	–	–	–	–	–	–	–	–	–	–	–	–	–	–	–	–	–	9.48	−5.00	–
Nc1cc2c(c3cnccc13)NCc1cnccc1-2 [P4, 6-amino-11,12-dihydropyrido[3,4-c][1,9]phenanthroline]	–	–	–	–	–	–	–	–	–	–	–	–	–	–	–	–	–	–	8.13	−5.09	–
Nc1cc2c(c3cnccc13)N(c1cccc(Br)c1)Cc1cnccc1-2 [P5, 6-amino-11-(3-bromophenyl)-11,12-dihydro-pyrido-[3,4-c][1,9]phenanthroline]	–	–	–	–	–	–	–	–	–	–	–	–	–	–	–	–	–	–	2.69	−5.57	percent growth versus concentration (dose-response curves, FIGS. 1 to 9) ([26]; nine cancer types, 5 dose assay): with increasing concentrations of the substance, the percent growth decreases
O=C1CC2=C(c3cnccc31)N(c1cccc(Br)c1)Cc1cnccc12 [P5-O, 11-(3-bromophenyl)-6-oxo-5,6,11,12-tetrahydropyrido[3,4-c][1,9]phenanthroline]	–	–	–	–	–	–	–	–	–	–	–	–	–	–	–	–	–	–	8.51	−5.07	–
Nc1cc2c(c3cnccc13)N(c1cccc(Cl)c1)Cc1cnccc1-2 [P16, 6-amino-11-(3-chlorophenyl)-11,12 dihydropyrido-[3,4-c][1,9]phenanthroline]	–	–	–	–	–	–	–	–	–	–	–	–	–	–	–	–	–	–	3.8	−5.42	–
Nc1cc2c(c3cnccc13)N(c1ccc(Cl)c(Cl)c1)Cc1cnccc1-2 [P26, 6-amino-11-(3,4-di-chlorophenyl)-11,12-dihydropyrido-[3,4-c][1,9]phenanthroline]	–	–	–	–	–	–	–	–	–	–	–	–	–	–	–	–	–	–	6.02	−5.22	–
